Assay: Boiling stability of micronutrients in water at 100 °C (simulated cooking)
Type: physicochemical
Description: To evaluate the effects on VA stabilization, VA (10% wt) was encapsulated with MPs fabricated from PAE_C, PAE_D, or PAE_E. The resulting MPs were tested in boiling water for 2 hours.
The boiling stability of micronutrients in PAE MP was studied in water at 100° C. At each time point, samples were lyophilized to obtain the boiled product.
High-performance liquid chromatography (HPLC), inductively coupled plasma-optical emission spectrometer (ICP-OES), and colorimetric assay kits were used for micronutrient quantification.

CCCCCCCCCCCCCCCC(=O)OC/C=C(C)/C=C/C=C(C)/C=C/C1=C(C)CCCC1(C)C [VA, retinyl palmitate]
VA recovered after boiling for 0.5 h: less than 20%

Source: patent US20250144032A1, “POLY(BETA-AMINO ESTER) MICROPARTICLES FOR MICRONUTRIENT FORTIFICATION” (Massachusetts Institute of Technology, priority 2021, published 2025)
